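Each compound was tested at five concentrations against cells in 96-well plates for 48 hours. GI50 = concentration required for 50% inhibition of growth. TGI: total growth inhibition.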
How the values were obtained:
Test in all cases: growth of human tumour cells (NCI), 48 h
786-0 renal = test system: 786-0 renal
A549 NSCLC = test system: A549 NSCLC
ACHN renal = test system: ACHN renal
BT-549 breast = test system: BT-549 breast
CAKI-1 renal = test system: CAKI-1 renal
CCRF-CEM leukemia = test system: CCRF-CEM leukemia
COLO 205 colon = test system: COLO 205 colon
DU-145 prostate = test system: DU-145 prostate
EKVX NSCLC = test system: EKVX NSCLC
HCC-2998 colon = test system: HCC-2998 colon
HCT-116 colon = test system: HCT-116 colon
HCT-15 colon = test system: HCT-15 colon
HL-60(TB) leukemia = test system: HL-60(TB) leukemia
HOP-62 NSCLC = test system: HOP-62 NSCLC
HOP-92 NSCLC = test system: HOP-92 NSCLC
HS 578T breast = test system: HS 578T breast
HT29 colon = test system: HT29 colon
IGROV1 ovarian = test system: IGROV1 ovarian
K-562 leukemia = test system: K-562 leukemia
KM12 colon = test system: KM12 colon
LOX IMVI melanoma = test system: LOX IMVI melanoma
M14 melanoma = test system: M14 melanoma
MALME-3M melanoma = test system: MALME-3M melanoma
MCF7 breast = test system: MCF7 breast
MDA-MB-231 breast = test system: MDA-MB-231 breast
MDA-MB-435 = test system: MDA-MB-435
MOLT-4 leukemia = test system: MOLT-4 leukemia
NCI-H226 lung = test system: NCI-H226 lung
NCI-H23 lung = test system: NCI-H23 lung
NCI-H460 lung = test system: NCI-H460 lung
NCI-H522 lung = test system: NCI-H522 lung
NCI/ADR-RES ovarian = test system: NCI/ADR-RES ovarian
OVCAR-3 ovarian = test system: OVCAR-3 ovarian
OVCAR-4 ovarian = test system: OVCAR-4 ovarian
OVCAR-5 ovarian = test system: OVCAR-5 ovarian
OVCAR-8 ovarian = test system: OVCAR-8 ovarian
PC-3 prostate = test system: PC-3 prostate
RPMI-8226 leukemia = test system: RPMI-8226 leukemia
SF-268 CNS = test system: SF-268 CNS
SF-295 CNS = test system: SF-295 CNS
SF-539 CNS = test system: SF-539 CNS
SK-MEL-28 melanoma = test system: SK-MEL-28 melanoma
SK-MEL-5 melanoma = test system: SK-MEL-5 melanoma
SK-OV-3 ovarian = test system: SK-OV-3 ovarian
SN12C renal = test system: SN12C renal
SNB-19 CNS = test system: SNB-19 CNS
SNB-75 CNS = test system: SNB-75 CNS
SR leukemia = test system: SR leukemia
SW-620 colon = test system: SW-620 colon
T-47D breast = test system: T-47D breast
TK-10 renal = test system: TK-10 renal
U251 CNS = test system: U251 CNS
UACC-257 melanoma = test system: UACC-257 melanoma
UACC-62 melanoma = test system: UACC-62 melanoma
UO-31 renal = test system: UO-31 renal

Question: What does the source list for `COC(=O)c1ccc(NC(=O)Nc2ccc3oc(=O)c4ccccc4c3c2)cc1`?
Answer: GI50 (786-0 renal): 18 µM; TGI (786-0 renal): 41.9 µM; GI50 (A549 NSCLC): > 100 µM; TGI (A549 NSCLC): > 100 µM; GI50 (ACHN renal): 29.5 µM; TGI (ACHN renal): > 100 µM; GI50 (BT-549 breast): 28.1 µM; TGI (BT-549 breast): > 100 µM; GI50 (CAKI-1 renal): 70.9 µM; TGI (CAKI-1 renal): > 100 µM; GI50 (CCRF-CEM leukemia): 0.177 µM; TGI (CCRF-CEM leukemia): 21.7 µM; GI50 (COLO 205 colon): 32.5 µM; TGI (COLO 205 colon): > 100 µM; GI50 (DU-145 prostate): 56.1 µM; TGI (DU-145 prostate): > 100 µM; GI50 (EKVX NSCLC): > 100 µM; TGI (EKVX NSCLC): > 100 µM; GI50 (HCC-2998 colon): 27.1 µM; TGI (HCC-2998 colon): 74 µM; GI50 (HCT-116 colon): 32.4 µM; TGI (HCT-116 colon): > 100 µM; GI50 (HCT-15 colon): > 100 µM; TGI (HCT-15 colon): > 100 µM; GI50 (HL-60(TB) leukemia): 0.714 µM; TGI (HL-60(TB) leukemia): 14 µM; GI50 (HOP-62 NSCLC): 17.8 µM; TGI (HOP-62 NSCLC): 39.6 µM; GI50 (HOP-92 NSCLC): 28.5 µM; TGI (HOP-92 NSCLC): 80.9 µM; TGI (HS 578T breast): 29.7 µM; GI50 (HT29 colon): 28 µM; TGI (HT29 colon): > 100 µM; GI50 (IGROV1 ovarian): 37.8 µM; TGI (IGROV1 ovarian): > 100 µM; GI50 (K-562 leukemia): 56.2 µM; TGI (K-562 leukemia): > 100 µM; GI50 (KM12 colon): > 100 µM; TGI (KM12 colon): > 100 µM; GI50 (LOX IMVI melanoma): 39.2 µM; TGI (LOX IMVI melanoma): > 100 µM; GI50 (M14 melanoma): 31.8 µM; TGI (M14 melanoma): > 100 µM; GI50 (MALME-3M melanoma): 28.7 µM; TGI (MALME-3M melanoma): 73.7 µM; GI50 (MCF7 breast): 35.2 µM; TGI (MCF7 breast): > 100 µM; GI50 (MDA-MB-231 breast): 23.7 µM; TGI (MDA-MB-231 breast): 55.9 µM; GI50 (MDA-MB-435): 27.9 µM; TGI (MDA-MB-435): 89.3 µM; GI50 (MOLT-4 leukemia): 17.6 µM; TGI (MOLT-4 leukemia): 62.1 µM; GI50 (NCI-H226 lung): 64.1 µM; TGI (NCI-H226 lung): > 100 µM; GI50 (NCI-H23 lung): 71.4 µM; TGI (NCI-H23 lung): > 100 µM; GI50 (NCI-H460 lung): 41.6 µM; TGI (NCI-H460 lung): > 100 µM; GI50 (NCI-H522 lung): 27.8 µM; TGI (NCI-H522 lung): > 100 µM; GI50 (NCI/ADR-RES ovarian): 41.7 µM; TGI (NCI/ADR-RES ovarian): > 100 µM; GI50 (OVCAR-3 ovarian): 29.5 µM; TGI (OVCAR-3 ovarian): 54.6 µM; GI50 (OVCAR-4 ovarian): 33.5 µM; TGI (OVCAR-4 ovarian): > 100 µM; GI50 (OVCAR-5 ovarian): 97.7 µM; TGI (OVCAR-5 ovarian): > 100 µM; GI50 (OVCAR-8 ovarian): 36.6 µM; TGI (OVCAR-8 ovarian): > 100 µM; GI50 (PC-3 prostate): 36.2 µM; TGI (PC-3 prostate): > 100 µM; GI50 (RPMI-8226 leukemia): 20.3 µM; TGI (RPMI-8226 leukemia): > 100 µM; GI50 (SF-268 CNS): 26.2 µM; TGI (SF-268 CNS): 71.2 µM; GI50 (SF-295 CNS): 55.9 µM; TGI (SF-295 CNS): > 100 µM; GI50 (SF-539 CNS): 62.5 µM; TGI (SF-539 CNS): > 100 µM; GI50 (SK-MEL-28 melanoma): 76 µM; TGI (SK-MEL-28 melanoma): > 100 µM; GI50 (SK-MEL-5 melanoma): 5.21 µM; TGI (SK-MEL-5 melanoma): 17.3 µM; GI50 (SK-OV-3 ovarian): 40.3 µM; TGI (SK-OV-3 ovarian): > 100 µM; GI50 (SN12C renal): 44.5 µM; TGI (SN12C renal): > 100 µM; GI50 (SNB-19 CNS): 33 µM; TGI (SNB-19 CNS): 89.8 µM; GI50 (SNB-75 CNS): 32 µM; TGI (SNB-75 CNS): 96.2 µM; GI50 (SR leukemia): 10.9 µM; TGI (SR leukemia): > 100 µM; GI50 (SW-620 colon): 30.9 µM; TGI (SW-620 colon): 98.3 µM; GI50 (T-47D breast): > 100 µM; TGI (T-47D breast): > 100 µM; GI50 (TK-10 renal): > 100 µM; TGI (TK-10 renal): > 100 µM; GI50 (U251 CNS): 30.9 µM; TGI (U251 CNS): > 100 µM; GI50 (UACC-257 melanoma): 60.7 µM; TGI (UACC-257 melanoma): > 100 µM; GI50 (UACC-62 melanoma): 82.2 µM; TGI (UACC-62 melanoma): > 100 µM; GI50 (UO-31 renal): 62.5 µM; TGI (UO-31 renal): > 100 µM

From PubChem BioAssay (NCI)
